For seven compounds, EC50 results are on record in ChEMBL document CHEMBL1156342, “Five new diprenylated flavonols from the leaves of Broussonetia kazinoki” (2001).

In brackets after ≈: the same amount, converted by molar mass.

Holding throughout (type): functional
One experiment has as its system KB. The experiment can be described thus: Cytotoxicity against human KB cells after 5 days by MTT assay. As to conditions: 120 h, read-out: ED50 (the source's name). For orientation: Formazan colour is commonly taken as a measure of viable cells.
Another experiment has as its system A549. The experiment can be described thus: Cytotoxicity against human A549 cells after 5 days by MTT assay. As to conditions: A549, 120 h, read-out: ED50 (the source's name).
The subject of another experiment is HCT-8. As to the kind of experiment: Cytotoxicity against human HCT8 cells after 5 days by MTT assay. The note with it: HCT-8, 120 h, read-out: ED50 (the source's name).

As to `C=CC(C)(C)c1c(O)cc(O)c2c(=O)c(O)c(-c3cc(O)c4c(c3)C=CC(C)(C)O4)oc12` [BROUSSONOL A], the EC50 in the experiment with KB was > 10 µg/mL; in the experiment on A549 it was 8.74 µg/mL (≈ 20 µM); in the experiment on HCT-8, 9.1 µg/mL (≈ 20.8 µM).

For `CC1Oc2cc(O)c3c(=O)c(O)c(-c4cc(O)c5c(c4)C=CC(C)(C)O5)oc3c2C1(C)C` (stereo unspecified) [BROUSSONOL B], the EC50 was > 10 µg/mL in the experiment on KB, 5.52 µg/mL (≈ 12.6 µM) in the experiment on A549 and 8.8 µg/mL (≈ 20.2 µM) in the experiment on HCT-8.

On to `CC(C)=CCc1cc(-c2oc3c4c(cc(O)c3c(=O)c2O)OC(C)C4(C)C)cc(O)c1O` (stereo unspecified) [BROUSSONOL C], for which the results for the EC50 in the experiment on KB, with A549 and in the experiment with HCT-8 were > 10 µg/mL, 7.77 µg/mL (≈ 17.7 µM) and 9.63 µg/mL (≈ 22 µM), respectively.

For the compound `CC(C)=CCc1cc(-c2oc3c(CC=C(C)C)c(O)cc(O)c3c(=O)c2O)cc(O)c1O` [BROUSSONOL D], the EC50 in the experiment with KB is 4.15 µg/mL (≈ 9.46 µM); with A549 it was > 10 µg/mL; in the experiment on HCT-8, > 10 µg/mL.

For the compound `CC(C)=CCc1cc(-c2oc3cc(O)c(CC=C(C)C)c(O)c3c(=O)c2O)cc(O)c1O` [BROUSSONOL E], the EC50 in the experiment on KB, in the experiment with A549 and in the experiment with HCT-8 was > 10 µg/mL throughout.

Regarding `CC(C)=CCc1c(CCCc2ccc(O)cc2O)cc(O)c(O)c1CC=C(C)C` [KAZINOL F], the EC50 in the experiment on KB, in the experiment with A549 and in the experiment on HCT-8 was > 10 µg/mL throughout.

Consider `COc1cc(O)ccc1CCCc1cc(O)c(O)c(CC=C(C)C)c1CC=C(C)C` [KAZINOL J], for which the EC50 in the experiment with KB, with A549 and in the experiment with HCT-8 was > 10 µg/mL each time.
